Patent publication US4885239A, “Rapid differentiation of bacteria using polyether antibiotics” (Eastman Kodak Company, priority 1986, dated 1989)

Assays:
[1] = tested on: E. coli (gram -); assay: inhibition of the reduction of RIND IX (Example 7), E. coli; format: cell-based, Escherichia coli (ATCC 25922); settings: about 1.7×10^-4 molar, calcium chloride, 635 nm, 30 minutes, 37° C.
Procedure: (§1) gram-negative bacteria Enterobacter cloacae (ATCC 23355), Escherichia coli (ATCC 25922), Proteus vulgaris (ATCC 13315), Klebsiella pneumoniae (ATCC 13883) and Pseudomonas aeruginosa (ATCC 27853), and gram-positive bacteria Staphylococcus aureus (ATCC 25923) and Streptococcus pyogenes (ATCC 19615), and brain heart infusion (BHI) broth from Difco Laboratories (Detroit, Mich.),
(§2) Bacterial suspensions were prepared by growing the cells in BHI to stationary phase overnight at 37° C. P. aeruginosa was grown with agitation. About 40 ml of overnight cultures were centrifuged, decanted and washed once with 0.05 molar potassium phosphate buffer or 0.05 molar N-2-hydroxyethylpiperazine-N'-2-ethanesulfonic acid (HEPES) buffer, pH 7.8, and resuspended in buffer.
(§3) Optical density readings (OD) were made at 635 nm at 0 minutes and after incubation at 37° C. for 30 minutes for all solutions, and the change (ΔOD) was determined. […] The corrected percent inhibition was calculated by dividing the difference between ΔOD obtained from a Control test without antibiotic and the ΔOD of the test, by the ΔOD of the Control without antibiotic. All readings were corrected by subtracting readings of the appropriate background control.
(§4) A dispersion of the RIND IX compound was prepared by dissolving the RIND compound in N,N-dimethylformamide (16 mg/ml of solvent acidified with 0.1% concentrated sulfuric acid). […]

[2] = tested on: S. aureus (gram +); assay: inhibition of the reduction of RIND IX (Example 7), S. aureus; format: cell-based, Staphylococcus aureus (ATCC 25923); settings: Staphylococcus aureus, 0.5 h, about 1.7×10^-4 molar, calcium chloride, 635 nm, 30 minutes, 37° C., read-out: Corrected Percent Inhibition
Procedure: as §1, §2, §3, §4

[3] = tested on: viable gram-positive and gram-negative bacteria; assay: differentiation of viable gram-positive and gram-negative bacteria (outcome in words); format: cell-based; settings: RIND IX; Example 7
Procedure: as §1, §2
TERGITOL 7 anionic surfactant was used to differentiate viable bacteria according to the prior art method. Various concentrations of TERGITOL 7 surfactant were mixed with a 10% glucose solution (50 μl), 3-(4,5-dimethyl-2-thiazolyl)-2,5-diphenyl-2N-tetrazolium bromide (MTT) in methanol (25 μl at 5 mg/ml) or a RIND VII dispersion (1.5 ml) and phenazine methosulfate ETA (25 μl at 3 mg/ml methanol). The volume of each test solution was brought to 3 ml with potassium phosphate buffer. A cell suspension (100 μl at about 10^8 cells/ml) was then added. The solutions were incubated at 37° C. for 15 and 30 minutes in the presence of either E. coli, a gram (-) bacterium, or S. aureus, a gram (+) bacterium. The amount of dye formed was then determined visually and graded as follows: 0 indicates no dye formation, +/- indicates faint dye formation, 1+ indicates light dye formation, 2+ indicates moderate dye formation, 3+ indicates strong dye formation, and 4+ indicates very strong dye formation.
Calimycin, a polyether antibiotic, was similarly used with RIND VII in the differentiation of bacteria. Assays were performed as described above, except that 25 μl of 1 molar calcium chloride solution was added to each test solution and the P. aeruginosa response was measured in the presence of 10% yeast extract as the carbon source instead of glucose. The final concentration of calimycin in each test was 10^-3 molar.
The test solutions were prepared by adding the following, in order: 1.2 ml HEPES, 50 μl glucose solution, 1.5 ml RIND VII dispersion, 100 μl antibiotic solution, 100 μl cell suspension and 25 μl ETA solution. Cell control solutions contained all reagents except antibiotics. Background Controls consisted of both buffer and solution controls. The buffer control contained all reagents except antibiotics and cells. The solution control contained all reagents except cells.
Optical density readings (OD) were made at 635 nm at 0 minutes and after incubation at 37° C. for 30 minutes for all solutions, and the change (ΔOD) was determined. Table V below lists the results expressed as corrected percent inhibition of the reduction of RIND VII. The corrected percent inhibition was calculated by dividing the difference between ΔOD obtained from a Control test without antibiotic and the ΔOD of the test, by the ΔOD of the Control without antibiotic. All readings were corrected by subtracting readings of the appropriate background control.
Relative fluorescence was measured using a standard spectrophotometer modified to read at excitation of 540 nm and emission of 620 nm. The change (Δ) in relative fluorescence was determined after 30 minutes at 37° C. for several concentration levels of antibiotic.
Optical density measurements were obtained at 540 nm using a standard spectrophotometer and the change in optical density (ΔOD) was determined after 30 minutes at 37° C. The resulting data are shown in Table VII below for several concentrations of antibiotic. It is clear from the data that the composition of this example was useful for differentiating bacteria. […]

C[C@H](CCC(=O)O)C[C@H](C)C[C@H](C)C(=O)/C=C(\O)[C@H](C)C[C@H](C)C/C=C/[C@@H](C)[C@@H](O)[C@@H](C)[C@@H](O)C[C@@H]1CC[C@@](C)([C@H]2CC[C@@](C)([C@@H](C)O)O2)O1 [ionomycin]
Corrected Percent Inhibition [1]: No Inhibition | inhibition at 170 µM [2]: 59.7% | differentiating gram-positive and gram-negative bacteria [3]: can be used to differentiate gram-positive and gram-negative bacteria
